Results: ChEMBL document CHEMBL5038576 (J Med Chem, 2021)

Tests used:
[1] = target: T1, Adenosine receptor A2b (Homo sapiens, UniProt P29275)
T1 sequence (P29275 whole entry): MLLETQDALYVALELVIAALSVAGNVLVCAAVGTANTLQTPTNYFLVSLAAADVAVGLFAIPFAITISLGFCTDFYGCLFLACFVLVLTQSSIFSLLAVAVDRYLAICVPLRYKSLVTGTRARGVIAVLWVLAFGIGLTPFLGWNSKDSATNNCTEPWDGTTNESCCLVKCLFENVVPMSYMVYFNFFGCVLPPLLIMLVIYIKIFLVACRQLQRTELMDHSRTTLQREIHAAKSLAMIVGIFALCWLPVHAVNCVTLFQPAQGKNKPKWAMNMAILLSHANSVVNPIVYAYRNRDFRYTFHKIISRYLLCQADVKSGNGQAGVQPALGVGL

[2] = target: T2, Adenosine receptor A1 (Homo sapiens, UniProt P30542)
T2 sequence (P30542 whole entry): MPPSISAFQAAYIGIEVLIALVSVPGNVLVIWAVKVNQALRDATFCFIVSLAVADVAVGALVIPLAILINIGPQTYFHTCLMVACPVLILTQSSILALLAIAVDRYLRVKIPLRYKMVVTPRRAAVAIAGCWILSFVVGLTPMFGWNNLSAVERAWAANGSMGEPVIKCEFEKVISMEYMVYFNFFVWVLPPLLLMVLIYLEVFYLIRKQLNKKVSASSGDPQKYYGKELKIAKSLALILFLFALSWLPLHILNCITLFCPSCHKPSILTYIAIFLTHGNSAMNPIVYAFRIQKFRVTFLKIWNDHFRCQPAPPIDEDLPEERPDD

[3] = target: T3, Adenosine receptor A1 (Homo sapiens) (UniProt P30542); assay: Displacement of [3H]DPCPX from human A1 receptor expressed in CHO cell membranes at 10 uM measured after 3 hrs by radioligand binding assay relative to control; details: Membrane
T3 sequence (whole entry): T2 sequence (P30542 whole entry)

[4] = target: T4, Adenosine receptor A2a (Homo sapiens, UniProt P29274); assay: Displacement of [3H]ZM241385 from human A2A receptor expressed in HEK293 cell membranes at 10 uM measured after 3 hrs by radioligand binding assay relative to control; details: Membrane
T4 sequence (P29274 whole entry): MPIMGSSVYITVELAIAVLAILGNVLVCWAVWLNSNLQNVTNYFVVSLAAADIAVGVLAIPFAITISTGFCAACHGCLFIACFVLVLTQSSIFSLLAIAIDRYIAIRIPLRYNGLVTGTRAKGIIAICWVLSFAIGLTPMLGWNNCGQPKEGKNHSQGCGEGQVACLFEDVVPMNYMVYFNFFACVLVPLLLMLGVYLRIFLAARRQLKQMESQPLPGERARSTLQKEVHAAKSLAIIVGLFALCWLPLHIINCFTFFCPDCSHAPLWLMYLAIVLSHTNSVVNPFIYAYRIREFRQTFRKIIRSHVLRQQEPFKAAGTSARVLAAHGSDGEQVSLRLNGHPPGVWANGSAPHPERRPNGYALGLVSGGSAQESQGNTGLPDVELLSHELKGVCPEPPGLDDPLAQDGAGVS

[5] = target: T5, Adenosine receptor A3 (Homo sapiens) (UniProt P0DMS8); assay: Displacement of [3H]PSB-11 from human A3 receptor expressed in CHO cell membranes at 10 uM measured after 3 hrs by radioligand binding assay relative to control; details: Membrane
T5 sequence (whole entry): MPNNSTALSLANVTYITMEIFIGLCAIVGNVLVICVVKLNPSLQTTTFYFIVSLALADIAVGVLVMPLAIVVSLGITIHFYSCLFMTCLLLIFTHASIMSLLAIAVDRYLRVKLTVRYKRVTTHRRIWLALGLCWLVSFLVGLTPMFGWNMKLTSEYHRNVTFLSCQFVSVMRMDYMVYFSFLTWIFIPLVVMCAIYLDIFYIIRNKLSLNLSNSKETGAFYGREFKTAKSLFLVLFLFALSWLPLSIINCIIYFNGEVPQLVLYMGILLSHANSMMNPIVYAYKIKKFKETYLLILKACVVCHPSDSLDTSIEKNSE

[6] = target: T6, Adenosine receptor A2b (Homo sapiens) (UniProt P29275); assay: Displacement of [3H]PSB-603 from human A2B receptor expressed in CHO cell membranes at 1 uM measured after 3 hrs by radioligand binding assay relative to control; details: Membrane
T6 sequence (whole entry): T1 sequence (P29275 whole entry)

[7] = target: T4, Adenosine receptor A2a
Description: Displacement of [3H]ZM241385 from human A2A receptor expressed in HEK293 cell membranes measured after 3 hrs by radioligand binding assay

[8] = target: T4, Adenosine receptor A2a; remark: listed apart in the source
[9] = target: T7, Adenosine receptor A3 (Homo sapiens, UniProt P0DMS8)
T7 sequence (P0DMS8 whole entry): T5 sequence (whole entry)
Description: Displacement of [3H]PSB-11 from human A3 receptor expressed in CHO cell membranes measured after 3 hrs by radioligand binding assay

SMILES | Ki [2] [nM] | Activity [6] [%] | Ki [7] [nM] | EC50 [8] [nM] | Activity ([6]; filed as partial agonist) [%] | also measured
N#Cc1c(-c2ccccc2)cc(SCc2ncc[nH]2)nc1N | 417 | – | – | – | – | Ki [1]: 372 nM
Nc1cc(-c2ccccc2)cc(SCc2ncc[nH]2)n1 | – | -12 | – | – | – | Activity [3]: 12%; Activity [4]: -17%; Activity [5]: 46%
Nc1nc(SCc2ncc[nH]2)nc(-c2ccccc2)n1 | 288 | 2 | 562 | 813 | – | –
N#Cc1c(N)nc(SCc2ncc[nH]2)nc1-c1ccccc1 | 85.1 | – | – | – | 51 | Ki [9]: 347 nM
N#Cc1c(SCc2ncc[nH]2)nc(N)nc1-c1ccccc1 | 69.2 | – | 10 | 44.7 | 50 | –
N#Cc1c(-c2ccccc2)cc(N)nc1SCc1ncc[nH]1 | 112 | 37 | – | – | – | –
